# What was measured:
# [1] = system: HIV-1 mutant E138K; experiment: microbe, parasite or virus in culture; conditions: Human immunodeficiency virus 1, MT4, read-out: EC50 E138K
# [2] = system: WT HIV-1; experiment: microbe, parasite or virus in culture; conditions: Human immunodeficiency virus 1, MT4, read-out: WT EC50
# [3] = system: HIV-1 mutant Y188L; experiment: microbe, parasite or virus in culture; conditions: Human immunodeficiency virus 1, MT4, read-out: EC50 Y188L
# [4] = system: HIV-1 mutant K103N; experiment: microbe, parasite or virus in culture; conditions: Human immunodeficiency virus 1, MT4, read-out: EC50 K103N
# [5] = Cytotoxicity in uninfected; conditions: human, mock-infected (uninfected) MT-4 cells, CC50, uninfected MT-4 cells, MTT
# [6] = molecular target: WT HIV-1 RT (Human immunodeficiency virus type 1 group M subtype B, UniProt P03366); experiment: biochemical
# [7] = system: HIV-1 mutant L100I; experiment: microbe, parasite or virus in culture; conditions: Human immunodeficiency virus 1, MT4, read-out: EC50 L100I
# [8] = system: WT HIV-1; conditions: Selectivity index CC50/EC50 (WT)
# [9] = Liver microsomal stability, monkey; assay type: in vitro ADME
# [10] = Liver microsomal stability, human; assay type: in vitro ADME
# [11] = Liver microsomal stability, dog; assay type: in vitro ADME
# [12] = molecular target: hERG (Homo sapiens, UniProt Q12809); experiment: hERG channel Qpatch assay in CHO-hERG cells; assay type: cell-based; conditions: at 40 μmol/L
# [13] = system: mice; experiment: Acute toxicity assay and HE staining in healthy mice; assay type: in vivo
# [14] = system: MT-4 cells; experiment: Cytotoxicity in uninfected; conditions: uninfected MT-4 cells, MTT
# [15] = In vivo pharmacokinetics in Sprague-Dawley rats; conditions: male, rat, plasma
# [16] = MF%>70% excellent, 30-70% good, <30% poor
# Sequence of hERG (Q12809 whole entry): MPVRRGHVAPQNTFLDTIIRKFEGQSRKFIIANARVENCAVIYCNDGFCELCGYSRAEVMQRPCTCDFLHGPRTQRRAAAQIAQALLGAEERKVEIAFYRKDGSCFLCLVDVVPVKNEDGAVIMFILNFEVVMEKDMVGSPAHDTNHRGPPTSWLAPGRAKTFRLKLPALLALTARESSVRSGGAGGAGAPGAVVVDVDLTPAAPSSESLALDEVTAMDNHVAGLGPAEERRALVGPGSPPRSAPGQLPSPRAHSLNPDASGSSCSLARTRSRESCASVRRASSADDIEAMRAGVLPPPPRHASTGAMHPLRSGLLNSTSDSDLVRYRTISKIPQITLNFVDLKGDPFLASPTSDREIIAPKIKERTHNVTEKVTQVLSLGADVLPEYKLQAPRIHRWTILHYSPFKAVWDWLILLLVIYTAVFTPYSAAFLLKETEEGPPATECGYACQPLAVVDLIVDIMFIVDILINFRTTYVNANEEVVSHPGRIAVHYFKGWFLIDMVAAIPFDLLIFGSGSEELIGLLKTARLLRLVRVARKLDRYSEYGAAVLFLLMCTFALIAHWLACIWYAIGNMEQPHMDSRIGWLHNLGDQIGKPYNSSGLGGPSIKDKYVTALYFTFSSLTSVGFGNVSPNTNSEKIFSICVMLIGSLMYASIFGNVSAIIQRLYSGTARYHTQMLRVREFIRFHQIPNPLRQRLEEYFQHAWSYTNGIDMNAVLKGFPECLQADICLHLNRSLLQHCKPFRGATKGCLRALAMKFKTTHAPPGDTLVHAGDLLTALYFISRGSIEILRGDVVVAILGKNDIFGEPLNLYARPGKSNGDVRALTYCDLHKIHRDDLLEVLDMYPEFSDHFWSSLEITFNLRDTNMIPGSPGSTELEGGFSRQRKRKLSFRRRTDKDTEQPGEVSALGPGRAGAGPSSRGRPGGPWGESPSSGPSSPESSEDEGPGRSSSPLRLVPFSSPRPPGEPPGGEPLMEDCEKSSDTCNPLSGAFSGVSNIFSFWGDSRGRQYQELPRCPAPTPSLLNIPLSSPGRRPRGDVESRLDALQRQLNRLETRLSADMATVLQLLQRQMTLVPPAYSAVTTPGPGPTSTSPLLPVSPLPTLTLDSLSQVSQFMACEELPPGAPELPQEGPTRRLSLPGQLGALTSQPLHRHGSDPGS
structure (smiles),measurement,setting,value
"Cc1cc(-c2ccc(C#N)cc2)cc(C)c1Oc1nc(Nc2ccc(C#N)cc2)ncc1CO [9a, 4′-((2-((4-Cyanophenyl)amino)-5-(hydroxymethyl)pyrimidin-4-yl)oxy)-3′,5′-dimethyl-[1,1′-biphenyl]-4-carbonitrile]",EC50,[1],6.5 ± 0.5 nM
same,EC50,[2],2.5 ± 0.6 nM
same,EC50,[3],33 ± 4 nM
same,EC50,[4],3.2 ± 0.7 nM
same,CC50 at 5 days,[5],15600 ± 4600 nM
same,IC50,[6],35 ± 8 nM
same,EC50,[7],6.3 ± 0.3 nM
same,SI,[8],6343
"Cc1cc(-c2ccc(C#N)cc2)ccc1Oc1nc(Nc2ccc(C#N)cc2)ncc1CO [9b, 4′-((2-((4-Cyanophenyl)amino)-5-(hydroxymethyl)pyrimidin-4-yl)oxy)-3′-methyl-[1,1′-biphenyl]-4-carbonitrile]",EC50,[1],3.6 ± 0.7 nM
same,EC50,[2],1.2 ± 0.1 nM
same,EC50,[3],144 ± 25.9 nM
same,EC50,[4],2.9 ± 0.1 nM
same,CC50 at 5 days,[5],> 46200 nM
same,IC50,[6],27 ± 2 nM
same,EC50,[7],18.1 ± 3.4 nM
same,SI,[8],">38,095"
"COc1cc(-c2ccc(C#N)cc2)ccc1Oc1nc(Nc2ccc(C#N)cc2)ncc1CO [9c, 4′-((2-((4-Cyanophenyl)amino)-5-(hydroxymethyl)pyrimidin-4-yl)oxy)-3′-methoxy-[1,1′-biphenyl]-4-carbonitrile]",EC50,[1],19.4 ± 4.8 nM
same,EC50,[2],1.7 ± 0.1 nM
same,EC50,[3],137 ± 8.1 nM
same,EC50,[4],6.5 ± 0.2 nM
same,CC50 at 5 days,[5],258000 ± 1200 nM
same,IC50,[6],21 ± 8 nM
same,EC50,[7],20.5 ± 1.3 nM
same,SI,[8],"149,540"
"N#Cc1ccc(Nc2ncc(CO)c(Oc3ccc(-c4ccc(C#N)cc4)cc3F)n2)cc1 [9d, 4′-((2-((4-Cyanophenyl)amino)-5-(hydroxymethyl)pyrimidin-4-yl)oxy)-3′-fluoro-[1,1′-biphenyl]-4-carbonitrile]",EC50,[1],34.9 ± 3.2 nM
same,EC50,[2],3.9 ± 0.4 nM
same,EC50,[3],41800 nM
same,EC50,[4],14.4 ± 1.5 nM
same,CC50 at 5 days,[5],> 45800 nM
same,IC50,[6],33 ± 2 nM
same,EC50,[7],117 ± 17.7 nM
same,SI,[8],">11,594"
"N#Cc1ccc(Nc2ncc(CO)c(Oc3ccc(-c4ccc(C#N)cc4)cc3Cl)n2)cc1 [9e, 3′-Chloro-4′-((2-((4-cyanophenyl)amino)-5-(hydroxymethyl)pyrimidin-4-yl)oxy)-[1,1′-biphenyl]-4-carbonitrile]",EC50,[1],11 ± 2.1 nM
same,EC50,[2],2.6 ± 0.5 nM
same,EC50,[3],564 ± 97 nM
same,EC50,[4],3.8 ± 0.2 nM
same,CC50 at 5 days,[5],> 44100 nM
same,IC50,[6],29 ± 3 nM
same,EC50,[7],18.5 ± 3.6 nM
same,SI,[8],">17,021"
"N#Cc1ccc(Nc2ncc(CO)c(Oc3ccc(-c4ccc(C#N)cc4)cc3C(F)(F)F)n2)cc1 [9f, 4′-((2-((4-Cyanophenyl)amino)-5-(hydroxymethyl)pyrimidin-4-yl)oxy)-3′-(trifluoromethyl)-[1,1′-biphenyl]-4-carbonitrile]",EC50,[1],7.9 ± 0.2 nM
same,EC50,[2],1.8 ± 0.1 nM
same,EC50,[3],85.3 ± 8.4 nM
same,EC50,[4],3.2 ± 0.6 nM
same,CC50 at 5 days,[5],14600 ± 3100 nM
same,IC50,[6],21 ± 6 nM
same,EC50,[7],11.1 ± 0.5 nM
same,SI,[8],7891
"N#Cc1ccc(Nc2ncc(CO)c(Oc3c(F)cc(-c4ccc(C#N)cc4)cc3F)n2)cc1 [9g, 4′-((2-((4-Cyanophenyl)amino)-5-(hydroxymethyl)pyrimidin-4-yl)oxy)-3′,5′-difluoro-[1,1′-biphenyl]-4-carbonitrile]",MF,[9]; [16],28.1%
same,half-life,[9]; monkey liver microsomes,0.435 h
same,CLint scaled,"[9]; monkey liver microsomes, Clint(hep)",122 mL/min/kg
same,CLint scaled,"[9]; monkey liver microsomes, Clint(mic), monkey liver microsome",80.5 mL/min/kg
same,EC50,[1],3.5 ± 0.8 nM
same,half-life,"[10]; human, human liver microsomes",45.9 h
same,CLint scaled,"[10]; human, human liver microsomes, Clint(hep)",56.2 mL/min/kg
same,CLint scaled,"[10]; human, human liver microsomes, Clint(mic), human liver microsome",0.763 mL/min/kg
same,MF,"[10]; human, MF%>70% excellent, 30-70% good, <30% poor",96.3%
same,"t1/2 in human liver microsomes, fold longer than that of 5",[10]; relative to 5 (t1/2 = 96 min),about 29 fold
same,MF,[11]; [16],42.2%
same,half-life,[11]; dog liver microsomes,1.19 h
same,CLint scaled,"[11]; dog liver microsomes, Clint(hep)",179 mL/min/kg
same,CLint scaled,"[11]; dog liver microsomes, Clint(mic), dog liver microsome",29.5 mL/min/kg
same,inhibition of hERG,[12],no significant inhibition
same,EC50,[2],0.9 ± 0.1 nM
same,EC50,[3],161 ± 27.6 nM
same,EC50,[4],1.9 ± 0.2 nM
same,body weight,"[13]; mice (male and female), 2 g/kg, within two weeks",increased gradually
same,behavioral abnormalities,"[13]; mice, 2 g/kg",No behavioral abnormalities
same,pathological injury (HE staining),"[13]; mice, 2 g/kg, six organs",no obvious pathological injury
same,tolerability,"[13]; mice, single oral administration of 2 g/kg",well tolerated
same,CC50,[14],225000 ± 3900 nM
same,CC50 at 5 days,[5],264000 nM
same,IC50,[6],21 ± 1 nM
same,EC50,[7],8.2 ± 1.4 nM
same,Cmax,"[15]; iv, 1 mg/kg",296 ± 79.4 ng/mL
same,Tmax,"[15]; iv, 1 mg/kg",0.08 h
same,half-life,"[15]; iv, 1 mg/kg",1.5 ± 0.14 h
same,AUC,"[15]; iv, 1 mg/kg, AUC0‒t, 1.0 mg/kg i.v.",244 ± 24.5 ng·h/mL
same,AUC,"[15]; iv, 1 mg/kg, AUC0‒∞, 1.0 mg/kg i.v.",247 ± 25.8 ng·h/mL
same,MRT,"[15]; iv, 1 mg/kg, MRT0‒t, 1.0 mg/kg i.v.",1.19 ± 0.16 h
same,MRT,"[15]; iv, 1 mg/kg, MRT0‒∞, 1.0 mg/kg i.v.",1.33 ± 0.21 h
same,Cmax,"[15]; po, 10 mg/kg",39.3 ± 8.04 ng/mL
same,Tmax,"[15]; po, 10 mg/kg",0.83 ± 0.29 h
same,bioavailability,"[15]; po, 10 mg/kg",8.01 ± 0.02%
same,half-life,"[15]; po, 10 mg/kg",5.21 ± 3.02 h
same,AUC,"[15]; po, 10 mg/kg, AUC0‒t, 10.0 mg/kg p.o.",159 ± 48.7 ng·h/mL
same,AUC,"[15]; po, 10 mg/kg, AUC0‒∞, 10.0 mg/kg p.o.",198 ± 38.6 ng·h/mL
same,MRT,"[15]; po, 10 mg/kg, MRT0‒t, 10.0 mg/kg p.o.",3.91 ± 2.38 h
same,MRT,"[15]; po, 10 mg/kg, MRT0‒∞, 10.0 mg/kg p.o.",6.8 ± 2.79 h
same,SI,[8],"256,438"
"Cc1cc(-c2ccncc2)cc(C)c1Oc1nc(Nc2ccc(C#N)cc2)ncc1CO [9h, 4-((4-(2,6-Dimethyl-4-(pyridin-4-yl)phenoxy)-5-(hydroxymethyl)pyrimidin-2-yl)amino)benzonitrile]",EC50,[1],38.9 ± 4.1 nM
same,EC50,[2],7.1 ± 3 nM
same,EC50,[3],1580 ± 103 nM
same,EC50,[4],20.1 ± 3 nM
same,CC50 at 5 days,[5],221000 ± 12500 nM
same,EC50,[7],323 ± 44.5 nM
same,SI,[8],"30,868"

# From article PMC10372819 (Acta Pharmaceutica Sinica. B, 2023)
